Consider 1 compound from patent US20260027094A1, “USE OF PYRIDONE DERIVATIVE” (GUANGZHOU JOYO PHARMATECH CO., LTD, priority 2022, published 2026).

Each structure is given as a SMILES string.

This assay has as its system carbon tetrachloride-induced SD rat models of liver fibrosis. Briefly: In vivo pharmacodynamic study on carbon tetrachloride-induced rat models of liver fibrosis. More on the design: species or system SD rats. To be noted: for Liver fibrosis score (points): Sirius Red staining, model control 4.90 ± 0.88; for Liver CVF (%): model control 8.75 ± 2.39, normal 1.24 ± 0.23; for Liver HYP content: model control 702.84 ± 173.44, normal 307.30 ± 78.13. The source says:
• 1) Animals: SD rats, specific pathogen-free (SPF) grade, male, aged 7 to 8 weeks at the time of grouping, with 10 mice per group. The animals were supplied by Beijing HFK Bioscience Co., Ltd. • 2) Reagents, positive drugs, and test drugs • A. Reagents
• B. Positive Drug: Pirfenidone, Supplied by Biochempartner. • C. Test Drug: compound I, supplied by Guangzhou JOYO Pharmatech Co., Ltd. • 3) Modeling method
Intraperitoneal injection method of carbon tetrachloride: After the adaptation period inspection and observation were qualified, experimental animals were screened by body weight and randomly divided into a normal control group and a model induction group. Starting on the first day of grouping, animals in the model induction group were intraperitoneally injected with a 20% carbon tetrachloride solution dissolved in corn oil, at a modeling frequency of twice a week for six consecutive weeks. After two weeks of carbon tetrachloride induction, animals in the model induction group were randomly subdivided a second time into 5 experimental groups based on their alanine transaminase (ALT) levels (with body weight used as a calibration factor), including the model control group, positive drug treatment group, test compound low dose treatment group, test compound medium dose treatment group, and test compound high dose treatment group. Animals in the normal control group were administered the corresponding vehicle. The experimental period lasted for 6 weeks, during which all animals were given normal access to water and food. • 4) Grouping and administration info
• a: The test compound vehicle was an aqueous solution of 0.5% (w/v) methylcellulose and 0.2% (v/v) Tween 80. • b: An aqueous solution of 0.5% (w/v) methylcellulose and 0.2% (v/v) Tween 80 was used as the vehicle and prepared to the required concentration. • 5) Endpoint sample collection, histopathological analysis, and hydroxyproline content analysis. • A. After euthanizing the animals with pentobarbital sodium anesthesia, the liver was excised and rinsed with normal saline. The liver was divided into three segments: the large lobe, the left lobe, and the right-middle lobe. The large lobe tissue was quickly frozen in liquid nitrogen and stored in a −80° C. refrigerator for measuring the total hydroxyproline levels of animal liver samples in each group. The tissues of left lobe and right-middle lobe of liver were fixed in 10% formaldehyde, embedded in paraffin, and sectioned into 3 μm-thick slices. These slices were then deparaffinized in xylene, rehydrated through a graded ethanol series, subjected to Sirius Red staining, dehydrated, cleared, sealed, and observed under a microscope to capture histopathological changes. Routine tissue freezing was performed. • B. Analysis of fibrosis levels in liver tissue sections;
Based on Sirius Red staining results of liver sections, 1) fibrosis staging was scored according to the scoring criteria listed in Table 3; 2) using Image J, the liver fibrotic area and the total sample area of animals in each experimental group were counted to calculate the collagen volume fraction (CVF %) for each sample. • C. Detection of hydroxyproline levels in liver
The liver large lobe samples were processed according to the instructions using the hydroxyproline detection kit. The total hydroxyproline levels in the liver samples of animals in each group were detected.

Setting [1] is: Compound I high dose 30 mg/kg twice a day for 4 weeks.
[2] abbreviates: Compound I low dose 3 mg/kg twice a day for 4 weeks.
Where [3] appears, read: Compound I medium dose 10 mg/kg twice a day for 4 weeks.

Regarding `CC1(c2ccc(=O)n(-c3ccsc3)c2)COC1` [Compound I], the “Efficacy evaluation result (conclusion)” value (Compound I 3.0, 10.0 and 30.0 mg/kg twice a day, 4 weeks) is “significant therapeutic effect”. The “Liver fibrosis score (points)” value is, setting by setting: (Compound I high dose 30 mg/kg oral gavage twice a day for 4 weeks) 4.20 ± 0.92 points; (Compound I low dose 3 mg/kg oral gavage twice a day for 4 weeks) 4.40 ± 0.70 points; (Compound I medium dose 10 mg/kg oral gavage twice a day for 4 weeks) 4.00 ± 0.94 points. The “Liver CVF (%)” value by setting is: under setting [1], 5.60 ± 1.92 %; under setting [2], 5.02 ± 1.42 %; under setting [3], 4.87 ± 1.68 %. For the same compound, the “Liver HYP content” value by setting is: under setting [1], 607.79 ± 112.74 µg/g; under setting [2], 716.17 ± 105.01 µg/g; under setting [3], 560.60 ± 114.04 µg/g. Besides, the “Pseudolobular structure of the liver under light microscope” value (Compound I medium and high dose treatment groups (10, 30 mg/kg twice a day), some animals, Sirius Red) is on record as “tended to disintegrate”. Moreover, for the setting “each Compound I treatment group vs model control, medium and high dose most obvious”, the “Hepatocyte fat degeneration and swelling degeneration in the central vein area of the liver” value is recorded as “reduced to some extent”.
